# Measurements published in patent US20160160294A1, “METHODS AND MATERIALS FOR PREDICTING RESPONSE TO NIRAPARIB” (Tesaro, priority 2014, published 2016).
# Like-named read-outs stand apart in the source and are kept apart here.
# Key:
# [1] = test system: TNBC patient-derived xenograft (PDX) models
# Description: Mice were assigned to homogeneous groups of 10 animals when tumors reached a size of 70-200 mm^3, and were treated with niraparib at 50 mg/kg or 75 mg/kg once a day for 28 days. The compound was delivered by gavage (p.o) under a volume of […] for a 25-g mouse. Tumor volume was evaluated by measuring biweekly tumor diameters with a caliper.
# [2] = test system: ovarian cancer PDX models
# Description: A series of ovarian tumors were implanted orthotopically in mice and the resulting patient-derived xenograft (PDX) models were evaluated for niraparib sensitivity by ultrasound imaging. The BRCA status (mutated “BRCAmut” or wild-type “BRCAwt”) of each PDX model was evaluated, with BRCA1/2 variants identified by the test were classified in accordance with the recommendations of the American College of Medical Genetics and Genomics (ACMG) for standards in the interpretation and reporting of sequence variations. HRD scores were also determined for the PDX models as described in Examples 1 & 2.
# [3] = test system: basal breast cancer (BBC) patient-derived xenograft (PDX) models; conditions: subset of BBC PDX models; cited from earlier work
structure (smiles),measurement,setting,value
NC(=O)c1cccc2cn(-c3ccc([C@@H]4CCCNC4)cc3)nc12 [niraparib],effect on tumor volume,[1]; T330 model (FIG. 8),regression of tumor volume
same,number of TNBC PDX models whose growth was significantly inhibited,"[1]; among 20 tested, 50 mg/kg or 75 mg/kg once a day for 28 days, p.o.",6
same,activity in TNBC PDX models,[1]; subset of TNBC PDX models,robust activity
same,Response rate,[2]; All models (8/26),31% (8/26)
same,Response rate,[2]; BRCA1/2 deficient models (4/8),50% (4/8)
same,Response rate,[2]; HRD+ BRCA wt models (4/8),50% (4/8)
same,response of BBC PDX models to single agent treatment,[3],responded robustly
